Assay [1] relates to CRF-dependent cAMP production in AtT-20 cells. The experiment in a line: cAMP production inhibition experiment using AtT-20 cells. It is filed as cell-based. The following applies: Mus musculus, AtT20, 30 nM CRF, intracellular cAMP by HTRF, read-out: Adenylate cyclase activity IC50. An excerpt:
<cAMP Production Inhibition Experiment Using AtT-20 Cells>
The AtT-20 cells were of a mouse pituitary gland tumor-derived cell line which is known to respond to Corticotropin-Releasing Factor (CRF), leading to activation of the intracellular adenylate cyclase system, production of cyclic AMP (cAMP), and release of adenocorticotropic hormone (ACTH) (Biochem. Biophys. Res. Com. 106, 1364-1371, 1982). For the experiment, the cells (1×10^5) were suspended in D-MEM medium (0.1% FBS) and seeded in a 96-well plate, phosphodiesterase inhibitor (IBMX, Calbiochem) was added to a final concentration of 1 mM, and were cultured at 37° C. for 30 minutes. A dilution of the test compound was added, culturing was continued for 30 minutes at 37° C., and CRF (30 nM) was added and culturing was continued for 30 minutes at 37° C. The cells were collected by centrifugation (500×g, 5 minutes) and lysed with lysis buffer (0.2% dodecyltrimethylammonium bromide), and the intracellular cAMP production was quantified by the HTRF method. A cAMP kit HTRF (CIS Diagnostics Co., Ltd.) was used for the cAMP quantification.
(2) Calculation of cAMP Production Inhibition
The cAMP production of cells to which 30 nM CRF had been added was defined as 100% (control), and the value for each specimen was represented as a percentage (% of control).

The next assay addresses T1, human CRFR1 (Homo sapiens, UniProt P34998).
T1 construct: The full-length CRFR1 gene was obtained from a human brain cDNA library (QuickClone™, Clontech) by PCR; expressed in transfected cells
T1 sequence (P34998 24-415): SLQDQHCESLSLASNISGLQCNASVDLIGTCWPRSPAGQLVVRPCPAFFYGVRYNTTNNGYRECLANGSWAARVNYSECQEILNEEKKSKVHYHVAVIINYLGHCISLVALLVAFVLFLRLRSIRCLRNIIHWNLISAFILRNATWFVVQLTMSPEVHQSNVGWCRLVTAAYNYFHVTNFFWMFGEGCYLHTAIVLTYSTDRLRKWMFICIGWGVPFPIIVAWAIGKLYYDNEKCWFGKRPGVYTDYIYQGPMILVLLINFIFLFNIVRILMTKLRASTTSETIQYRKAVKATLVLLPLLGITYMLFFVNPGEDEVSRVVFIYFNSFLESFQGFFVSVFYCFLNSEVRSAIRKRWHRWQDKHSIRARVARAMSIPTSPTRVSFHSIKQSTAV
The experiment in a line: CRFR binding experiment (125I-sauvagine SPA, membrane fraction of CRFR1-expressing HEK293 cells). The following applies: 125I-sauvagine displacement, read-out: CRF1 receptor binding affinity IC50. The protocol:
<CRFR Binding Experiment>
(1) Preparation of CRFR-Expressing Cells
Membrane fraction of the cell highly expressing human CRFR1 was used as the experimental material for a CRFR binding experiment. The CRFR expressing cells were prepared in the following manner. The full-length CRFR1 gene was obtained from a human brain cDNA library (QuickClone™, Clontech) by PCR. The obtained DNA fragments were inserted into cloning vectors and the base sequences were determined. cDNA having the correct base sequence was then relinked to an expression vector (pcDNA3.1™, Invitrogen). The CRFR1 expression vector was introduced into HEK293 cells, and the resistant cells which grew in cell medium containing G418 (1 mg/ml) were cloned by limiting dilution. From these cloned cells, the clones with high binding affinity between the membrane fraction and sauvagine per unit of protein in the binding experiment described below were selected out and used for the final experiment.
(2) Preparation of Membrane Fraction
The cloned cells obtained in (1) were collected and disrupted with an ultrasonic generator in sonicate buffer (D-PBS(−) 10 mM MgCl2, 2 mM EGTA). The suspension obtained from ultrasonic disruption was centrifuged (46,000×g, 10 minutes), and the precipitate was resuspended in sonicate buffer and the same procedure was repeated. The final precipitate was then suspended in binding buffer (D-PBS(−) 10 mM MgCl2, 2 mM EGTA, 1.5% BSA, 0.15 mM bacitracin, 1× protease inhibitor cocktail (COMPLETE™, Boehringer)), and used as the membrane fraction after adjusting the protein concentration to 1.6 mg/ml.
The sauvagine binding experiment was conducted following the protocol of SPA™ (Amersham Pharmacia), using a 96-well plate. The experiment was conducted according to the SPA beads instruction manual. After allowing […] of the membrane fraction protein, 0.5 mg of SPA beads and […] of ^125I-sauvagine (Amersham Pharmacia) to stand at room temperature for 2 hours in the presence of the test compound, the mixture was centrifuged (1000×g, 5 minutes) and the radioactivity of each well was measured with a TopCount™ (Packard).
(4) Calculation of Binding Affinity
The radioactivity for non-radioactive sauvagine added in a 1000-fold excess was subtracted from each value as the non-specific binding, and the radioactivity of a sample without addition of the test substance (control) was defined as 100%, with each value represented as a percentage (% of control).

For the compound `CCCN(CCC)c1c(CC)nn2c(-c3ccc(OC)cc3Cl)cccc12` [Example 3, N-[7-(2-Chloro-4-methoxyphenyl)-2-ethylpyrazolo[1,5-a]pyridin-3-yl]-N,N-dipropylamine], the 50% inhibitory concentration (IC50) in assay [1] is 130 nM.
Turning to `CCCN(CCC)c1c(CC)nn2c(-c3ccc(OC)cc3OC)cccc12` [Example 6, N-[7-(2,4-Dimethoxyphenyl)-2-ethylpyrazolo[1,5-a]pyridin-3-yl]-N,N-dipropylamine], the values for the IC50 (on human CRFR1; in assay [1]) were 160 nM and 200 nM, respectively.
As for `CCCN(CCOC)c1c(CC)nn2c(-c3ccc(Cl)cc3Cl)cccc12` [Example 25, N-[7-(2,4-Dichlorophenyl)-2-ethylpyrazolo[1,5-a]pyridin-3-yl]-N-(2-methoxyethyl)-N-propylamine], the IC50 amounted to 210 nM on human CRFR1 and 550 nM in assay [1].
`CCc1nn2c(-c3ccc(Cl)cc3Cl)cccc2c1N(CCOC)CC(C)C` [Example 27, N-[7-(2,4-Dichlorophenyl)-2-ethylpyrazolo[1,5-a]pyridin-3-yl]-N-isobutyl-N-(2-methoxyethyl)amine]: the IC50 at human CRFR1 was 55 nM; in assay [1], 300 nM.
Consider `CCCN(CCC)c1c(SC)nn2c(-c3ccc(Cl)cc3Cl)cccc12` [Example 103, N-[7-(2,4-Dichlorophenyl)-2-methylthiopyrazolo[1,5-a]pyridin-3-yl]-N,N-dipropylamine], for which the half-maximal inhibitory concentration (IC50) came out at 90 nM at human CRFR1 and 400 nM in assay [1].
Take `COCCN(CC(C)C)c1c(SC)nn2c(-c3c(C)cc(C)cc3OC)cccc12` [Example 108, N-Isobutyl-N-[7-(2-methoxy-4,6-dimethylphenyl)-2-(methylsulfanyl)pyrazolo[1,5-a]pyridin-3-yl]-N-(2-methoxyethyl)amine]: the results for the IC50 (on human CRFR1; in assay [1]) were 50 nM and 20 nM, respectively.

These data come from patent US7285666B2, “Pyrazolo[1,5-a] pyridines and medicines containing the same” (Eisai R&D Management Co., Ltd., priority 2001, dated 2007).
